According to patent publication US10399945B2, “Tetrahydronaphthyl urea derivative” (MOCHIDA PHARMACEUTICAL CO., LTD., priority 2017, dated 2019):

Molecular target: Human TrkA Protein (Homo sapiens (Human), UniProt P04629)
Assay: Evaluation of Binding Activity for Human TrkA Protein (TrkA LanthaScreen Eu Kinase Binding Assay)
Conditions: TrkA enzyme, Kinase Tracer 236, TR-FRET, 60 minutes at room temperature
Method: (Pharmacological Experimental Example 1): Evaluation of Binding Activity for Human TrkA Protein
Measurement was carried out using TrkA LanthaScreen (registered trademark) Eu Kinase Binding Assay (ThermoFisher SCIENTIFIC). To a 384 well plate (Corning), 2.5 μL of the test compound having various concentrations and diluted with Kinase buffer (ThermoFisher SCIENTIFIC) and 2.5 μL of 15 nM TrkA enzyme (ThermoFisher SCIENTIFIC) were added. Moreover, […] Eu-anti-His Tag antibody (ThermoFisher SCIENTIFIC) and 5 μL of 30 nM Kinase (registered trademark) Tracer 236 (ThermoFisher SCIENTIFIC) were added, followed by reaction at room temperature for 60 minutes. After the reaction, the fluorescence intensity of Europium (Emission wavelength 615 nm) and TR-FRET (Emission wavelength 665 nm) with an excitation wavelength of 340 nm were measured with EnVision 2100 (PerkinElmer) to calculate the fluorescence ratio as the amount of the test compound and the TrkA enzyme bonded. The inhibitory activity (IC50 value) of each test compound was calculated with the fluorescence ratio of the well to which a solvent was added instead of the test compound being 0% and the fluorescence ratio of the well without addition of the TrkA protein being 100%.
In Table 1, […] mean Compounds 1 to 62 synthesized in accordance with Examples 1 to 62 described later.

Chain of Human TrkA Protein (P04629 33-796): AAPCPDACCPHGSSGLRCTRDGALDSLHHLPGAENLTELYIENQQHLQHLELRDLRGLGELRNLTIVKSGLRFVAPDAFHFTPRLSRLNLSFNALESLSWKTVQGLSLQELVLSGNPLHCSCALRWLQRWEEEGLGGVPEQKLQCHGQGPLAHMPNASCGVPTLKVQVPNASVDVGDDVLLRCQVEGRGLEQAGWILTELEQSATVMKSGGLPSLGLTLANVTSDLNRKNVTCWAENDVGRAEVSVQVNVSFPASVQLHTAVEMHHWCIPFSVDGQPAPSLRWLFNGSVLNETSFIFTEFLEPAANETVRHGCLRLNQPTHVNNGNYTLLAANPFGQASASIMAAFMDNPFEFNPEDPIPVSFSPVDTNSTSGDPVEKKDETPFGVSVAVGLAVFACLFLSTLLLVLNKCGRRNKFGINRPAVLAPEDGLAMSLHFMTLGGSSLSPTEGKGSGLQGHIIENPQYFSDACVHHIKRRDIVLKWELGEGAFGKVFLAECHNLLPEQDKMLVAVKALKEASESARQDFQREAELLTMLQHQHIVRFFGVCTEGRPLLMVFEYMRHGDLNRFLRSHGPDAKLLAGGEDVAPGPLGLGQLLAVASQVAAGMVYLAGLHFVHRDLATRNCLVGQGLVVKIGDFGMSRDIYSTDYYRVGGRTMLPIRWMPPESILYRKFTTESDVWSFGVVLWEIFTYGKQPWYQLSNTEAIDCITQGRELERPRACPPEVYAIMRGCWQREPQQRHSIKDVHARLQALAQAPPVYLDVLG

Cc1cc(-c2nc(-c3ccccc3)c(NC(=O)N[C@@H]3c4cc(F)c(F)cc4C(C)(C)C[C@H]3O)cc2C)cnn1 (racemic) [Compound 49, rac-1-((1R,2R)-6,7-difluoro-2-hydroxy-4,4-dimethyl-1,2,3,4-tetrahydronaphthalen-1-yl)-3-(5-methyl-6-(6-methylpyridazin-4-yl)-2-phenylpyridin-3-yl)urea]
IC50: ≤ 50 nM

Cc1cc(NC(=O)N[C@@H]2c3cc(F)c(F)cc3C(C)(C)C[C@H]2O)c(C2CCOCC2)nc1-c1cn[nH]c1 (racemic) [Compound 61, rac-1-((1R,2R)-6,7-difluoro-2-hydroxy-4,4-dimethyl-1,2,3,4-tetrahydronaphthalen-1-yl)-3-(5-methyl-6-(1H-pyrazol-4-yl)-2-(tetrahydro-2H-pyran-4-yl)pyridin-3-yl)urea]
IC50: 50 to 1000 nM

CC1(C)C[C@@H](O)[C@H](NC(=O)Nc2cccnc2-c2ccccc2)c2ccccc21 (racemic) [Compound 1, rac-1-((1R,2R)-2-hydroxy-4,4-dimethyl-1,2,3,4-tetrahydronaphthalen-1-yl)-3-(2-phenylpyridin-3-yl)urea]
IC50: ≤ 50 nM

Cc1cc(NC(=O)N[C@@H]2c3ccccc3C(C)(C)C[C@H]2O)c(-c2ccccc2)nc1-c1cncc(C(F)(F)F)c1 [Compound 11, 1-((1R,2R)-2-hydroxy-4,4-dimethyl-1,2,3,4-tetrahydronaphthalen-1-yl)-3-(3-methyl-6-phenyl-5′-(trifluoromethyl)-[2,3′-bipyridin]-5-yl)urea]
IC50: ≤ 50 nM

Cc1cc(NC(=O)N[C@@H]2c3cc(F)c(F)cc3C(C)(C)C[C@H]2O)c(C2CCOCC2)nc1C(=O)NCC(C)(C)O (racemic) [Compound 60, rac-5-(3-((1R,2R)-6,7-difluoro-2-hydroxy-4,4-dimethyl-1,2,3,4-tetrahydronaphthalen-1-yl)ureido)-N-(2-hydroxy-2-methylpropyl)-3-methyl-6-(tetrahydro-2H-pyran-4-yl)picolinamide]
IC50: 50 to 1000 nM

Cc1cc(NC(=O)N[C@@H]2c3ccccc3C(C)(C)C[C@H]2O)c(-c2ccccc2)nc1-c1ccc(C#N)cc1 [Compound 16, 1-(6-(4-cyanophenyl)-5-methyl-2-phenylpyridin-3-yl)-3-((1R,2R)-2-hydroxy-4,4-dimethyl-1,2,3,4-tetrahydronaphthalen-1-yl)urea]
IC50: ≤ 50 nM

Cc1ncc(-c2nc(-c3ccccc3)c(NC(=O)N[C@@H]3c4ccc(F)cc4C(C)(C)C[C@H]3O)cc2C)cn1 (racemic) [Compound 35a]
IC50: ≤ 50 nM

Cc1cc(NC(=O)N[C@@H]2c3cc(F)c(F)cc3C(C)(C)C[C@H]2O)c(C2CCOCC2)nc1-c1cnc(O)nc1 (racemic) [Compound 62, rac-1-((1R,2R)-6,7-difluoro-2-hydroxy-4,4-dimethyl-1,2,3,4-tetrahydronaphthalen-1-yl)-3-(6-(2-hydroxypyrimidin-5-yl)-5-methyl-2-(tetrahydro-2H-pyran-4-yl)pyridin-3-yl)urea]
IC50: 50 to 1000 nM

Cc1cc(NC(=O)N[C@@H]2c3cc(F)c(F)cc3C(C)(C)C[C@H]2O)c(-c2ccccc2)nc1C(=O)NCC(C)(C)O (racemic) [Compound 42, rac-5-(3-((1R,2R)-6,7-difluoro-2-hydroxy-4,4-dimethyl-1,2,3,4-tetrahydronaphthalen-1-yl)ureido)-N-(2-hydroxy-2-methylpropyl)-3-methyl-6-phenylpicolinamide]
IC50: ≤ 50 nM

Cc1cc(NC(=O)N[C@@H]2c3cc(F)c(F)cc3C(C)(C)C[C@H]2O)c(-c2ccccc2)nc1-c1ccc(C#N)cc1 (racemic) [Compound 52, rac-1-(6-(4-cyanophenyl)-5-methyl-2-phenylpyridin-3-yl)-3-((1R,2R)-6,7-difluoro-2-hydroxy-4,4-dimethyl-1,2,3,4-tetrahydronaphthalen-1-yl)urea]
IC50: ≤ 50 nM

Cc1cnc(C2CCOCC2)c(NC(=O)N[C@@H]2c3ccccc3C(C)(C)C[C@H]2O)c1 (racemic) [Compound 26, rac-1-((1R,2R)-2-hydroxy-4,4-dimethyl-1,2,3,4-tetrahydronaphthalen-1-yl)-3-(5-methyl-2-(tetrahydro-2H-pyran-4-yl)pyridin-3-yl)urea]
IC50: ≤ 50 nM
